What all share (format): in vivo
For assay [1], the system named is Amaranthus retroflexus. Kind of assay: greenhouse pre-emergence herbicidal test. Particulars: scale 0 to 100. From the text:
The seeds of the test plants were sown separately for each species. For the pre-emergence treatment, the active ingredients, which had been suspended or emulsified in water, were applied directly after sowing by means of finely distributing nozzles. The containers were irrigated gently to promote germination and growth and subsequently covered with transparent plastic hoods until the plants had rooted. This cover caused uniform germination of the test plants, unless this had been impaired by the active ingredients. […] The test period extended over 2 to 4 weeks. During this time, the plants were tended, and their response to the individual treatments was evaluated. Evaluation was carried out using a scale from 0 to 100. 100 means no emergence of the plants, or complete destruction of at least the aerial moieties, and 0 means no damage, or normal course of growth. A moderate herbicidal activity is given at values of at least 60, a good herbicidal activity is given at values of at least 70, and a very good herbicidal activity is given at values of at least 85. The plants used in the greenhouse experiments were of the following species: […]

The subject of the next assay is Echinocloa crus-galli. In words: greenhouse pre-emergence herbicidal test. The settings on record: 250 g/ha, scale 0 to 100. An excerpt:
(§1) The culture containers used were plastic flowerpots containing loamy sand with approximately 3.0% of humus as the substrate. The seeds of the test plants were sown separately for each species.
(§2) For the pre-emergence treatment, the active ingredients, which had been suspended or emulsified in water, were applied directly after sowing by means of finely distributing nozzles.
(§3) The containers were irrigated gently to promote germination and growth and subsequently covered with transparent plastic hoods until the plants had rooted. This cover caused uniform germination of the test plants, unless this had been impaired by the active ingredients.
(§4) Depending on the species, the plants were kept at 10-25° C. or 20-35° C., respectively.
(§5) The test period extended over 2 to 4 weeks. During this time, the plants were tended, and their response to the individual treatments was evaluated.
(§6) Evaluation was carried out using a scale from 0 to 100. 100 means no emergence of the plants, or complete destruction of at least the aerial moieties, and 0 means no damage, or normal course of growth. A moderate herbicidal activity is given at values of at least 60, a good herbicidal activity is given at values of at least 70, and a very good herbicidal activity is given at values of at least 85.
(§7) The plants used in the greenhouse experiments were of the following species: […]

The test system of the next assay is Setaria faberi. In words: greenhouse pre-emergence herbicidal test. The settings on record: scale 0 to 100.
From the text: as §1, §2, §3, §4, §5, §6, §7

The test system of a further assay is Alopercurus myosuroides. Kind of assay: greenhouse pre-emergence herbicidal test. Particulars: scale 0 to 100.
From the text: as §1, §2, §3, §4, §5, §6, §7

The next assay relates to Lolium multiflorum. Kind of assay: greenhouse pre-emergence herbicidal test. The settings on record: 250 g/ha, scale 0 to 100.
From the text: as §1, §2, §3, §4, §5, §6, §7

Another assay has as its system Apera spica-venti. In words: greenhouse pre-emergence herbicidal test. The settings on record: scale 0 to 100.
From the text: as §1, §2, §3, §4, §5, §6, §7

Assay [2] concerns Abutilon theophrasti. In words: greenhouse post-emergence herbicidal test. Particulars: 250 g/ha, scale 0 to 100.
From the text: as §1
(§8) For the post-emergence treatment, the test plants were first grown to a height of 3 to 15 cm, depending on the plant habit, and only then treated with the active ingredients which had been suspended or emulsified in water. For this purpose, the test plants were either sown directly and grown in the same containers, or they were first grown separately as seedlings and transplanted into the test containers a few days prior to treatment.
as §4, §5, §6, §7

Assay [3] deals with Amaranthus retroflexus. In words: greenhouse post-emergence herbicidal test. Particulars: 250 g/ha, scale 0 to 100.
From the text: as §1, §8, §4, §5, §6, §7

Assay [4] has as its system Abutilon theophrasti. In words: greenhouse pre-emergence herbicidal test. Particulars: 250 g/ha, scale 0 to 100.
From the text: as §1, §2, §3, §4, §5, §6, §7

On to `CCCc1nc(F)c(Nc2nc(N)nc(C(C)(C)F)n2)c(Cl)c1F` [Example 44], for which, in the assay on Amaranthus retroflexus [1] (250 g/ha), the herbicidal activity came out at 100%.

Turning to `Nc1nc(Nc2c(F)ncc(F)c2Cl)nc(C2(F)CCCC2)n1` [Example 12], the herbicidal activity is 100% in the assay with Amaranthus retroflexus [1] (250 g/ha), 98% in the assay on Echinocloa crus-galli and 100% in the assay on Setaria faberi (250 g/ha).

Consider `CCCC(F)(F)c1nc(N)nc(Nc2c(F)ncc(F)c2Cl)n1` [Example 37], for which the herbicidal activity in the assay with Amaranthus retroflexus [1] (250 g/ha), with Alopercurus myosuroides (250 g/ha) and in the assay on Setaria faberi (250 g/ha) was 100% throughout.

Turning to `CCCC(F)c1nc(N)nc(Nc2c(F)ncc(F)c2Br)n1` (centres unmarked) [Example 46], the herbicidal activity with Amaranthus retroflexus [1] (250 g/ha) was 100%; with Alopercurus myosuroides (250 g/ha) it was 98%; in the assay on Setaria faberi (250 g/ha), 100%.

For the compound `CC1(c2nc(N)nc(Nc3c(F)ncc(F)c3Cl)n2)CCC1` [Example 9], the herbicidal activity in the assay with Amaranthus retroflexus [1] (250 g/ha), in the assay with Alopercurus myosuroides (250 g/ha) and in the assay on Echinocloa crus-galli was 100% throughout.

As to `Nc1nc(Nc2c(F)ncc(F)c2Br)nc(C2(F)CCCCC2)n1` [Example 51], the herbicidal activity with Amaranthus retroflexus [1] (250 g/ha), with Alopercurus myosuroides (250 g/ha) and in the assay on Setaria faberi (250 g/ha) was 100% in each case.

Take `COC1(c2nc(N)nc(Nc3c(F)ncc(F)c3Cl)n2)CCCC1` [Example 10]: the herbicidal activity was 100% in the assay with Amaranthus retroflexus [1] (250 g/ha), 100% in the assay with Alopercurus myosuroides (250 g/ha) and 95% in the assay on Lolium multiflorum.

For `Nc1nc(Nc2c(Cl)ccnc2Cl)nc(C2(F)CCCC2)n1` [Example 47], the herbicidal activity in the assay on Amaranthus retroflexus [1] (250 g/ha), in the assay with Lolium multiflorum and with Setaria faberi (250 g/ha) was 100% in each case.

For the compound `Cc1nc(F)c(Nc2nc(N)nc(C(C)(C)F)n2)c(Cl)c1F` [Example 32, N4-(4-Chloro-2,5-difluoro-6-methyl-3-pyridyl)-6-(1-fluoro-1-methyl-ethyl)-1,3,5-triazine-2,4-diamine], the herbicidal activity in the assay on Amaranthus retroflexus [1] (250 g/ha) was 100%; in the assay on Alopercurus myosuroides (250 g/ha), 90%; in the assay with Echinocloa crus-galli, 85%.

In the case of `Nc1nc(Nc2c(F)ncc(F)c2Cl)nc(C2(F)CCCCC2)n1` [Example 11], the herbicidal activity with Amaranthus retroflexus [1] (250 g/ha), in the assay on Alopercurus myosuroides (250 g/ha) and with Setaria faberi (250 g/ha) was 100% in each case.

Take `CCCC(F)c1nc(N)nc(Nc2c(F)ncc(F)c2Cl)n1` (racemic) [Example 13]: the herbicidal activity in the assay on Amaranthus retroflexus [1] (250 g/ha), with Echinocloa crus-galli and with Setaria faberi (250 g/ha) was 100% throughout.

As to `CC(C)(F)c1nc(N)nc(Nc2c(F)ncc(F)c2Cl)n1` [Example 4], the herbicidal activity with Amaranthus retroflexus [1] (250 g/ha), in the assay on Alopercurus myosuroides (250 g/ha) and in the assay with Echinocloa crus-galli was 100% throughout.

Regarding `Nc1nc(Nc2c(F)ncc(F)c2Br)nc(C2(F)CCCC2)n1` [Example 43], the herbicidal activity with Amaranthus retroflexus [1] (250 g/ha), with Alopercurus myosuroides (250 g/ha) and in the assay on Setaria faberi (250 g/ha) was 100% each time.

Consider `CC(C)(F)c1nc(N)nc(Nc2c(F)ncc(F)c2Br)n1` [Example 35], for which the herbicidal activity in the assay with Amaranthus retroflexus [1] (250 g/ha), in the assay on Alopercurus myosuroides (250 g/ha) and in the assay with Echinocloa crus-galli was 100% each time.

Turning to `CC(C)CC(F)(F)c1nc(N)nc(Nc2c(F)ncc(F)c2Cl)n1` [Example 38], the values for the herbicidal activity in the assay with Amaranthus retroflexus [1] (250 g/ha) and in the assay on Setaria faberi (250 g/ha) were 100% and 90%, respectively.

In the assay with Amaranthus retroflexus [1] (250 g/ha), `CC1(c2nc(N)nc(Nc3c(F)ncc(F)c3Cl)n2)CC1` [Example 33] registered a herbicidal activity of 98%.

As to `Nc1nc(Nc2c(F)ncc(F)c2Cl)nc(C2(F)CC=CC2)n1` [Example 19], the herbicidal activity with Amaranthus retroflexus [1] (250 g/ha), in the assay on Echinocloa crus-galli and in the assay with Setaria faberi (250 g/ha) was 100% each time.

Consider `CC1CCC(c2nc(N)nc(Nc3c(F)ncc(F)c3Cl)n2)CC1` (centres unmarked) [Example 23], for which the herbicidal activity with Amaranthus retroflexus [1] (250 g/ha) is given as 95%.

On to `CC(C)(C#N)c1nc(N)nc(Nc2c(F)ncc(F)c2Cl)n1` [Example 28], for which, in the assay with Amaranthus retroflexus [1] (250 g/ha), the herbicidal activity turned out to be 100%.

As to `CC(C)(C)c1nc(N)nc(Nc2c(F)ncc(F)c2Cl)n1` [Example 7, 6-tert-butyl-N4-(4-chloro-2,5-difluoro-3-pyridyl)-1,3,5-triazine-2,4-diamine], the herbicidal activity in the assay with Amaranthus retroflexus [1] (250 g/ha) worked out at 90%; in the assay on Alopercurus myosuroides (250 g/ha), 98%; with Setaria faberi (250 g/ha), 95%.

Regarding `Nc1nc(Nc2c(F)ncc(F)c2Cl)nc(C2(Cl)CCCC2)n1` [Example 21], the herbicidal activity is recorded as 100% in the assay with Amaranthus retroflexus [1] (250 g/ha) and 95% in the assay with Setaria faberi (250 g/ha).

In the case of `N#Cc1ccnc(Cl)c1Nc1nc(N)nc(C2(F)CCCC2)n1` [Example 60], the herbicidal activity turned out to be 98% in the assay with Amaranthus retroflexus [1] (250 g/ha); 95% in the assay with Apera spica-venti (250 g/ha); 85% in the assay on Echinocloa crus-galli; 95% with Abutilon theophrasti [2]; 80% in the assay on Amaranthus retroflexus [3].

Turning to `CC(C)(F)c1nc(N)nc(Nc2c(F)ncc(F)c2I)n1` [Example 41], the values for the herbicidal activity in the assay on Amaranthus retroflexus [1] (250 g/ha), in the assay with Alopercurus myosuroides (250 g/ha) and in the assay on Setaria faberi (250 g/ha) were 100%, 98% and 100%, respectively.

Consider `Nc1nc(Nc2c(F)ncc(F)c2Cl)nc(C(F)C2CCCC2)n1` (racemic) [Example 20], for which the herbicidal activity in the assay with Amaranthus retroflexus [1] (250 g/ha), in the assay on Alopercurus myosuroides (250 g/ha) and in the assay on Setaria faberi (250 g/ha) was 100% throughout.

As to `Nc1nc(Nc2c(F)ncc(F)c2Cl)nc(C2CCCC2)n1` [Example 6], the herbicidal activity in the assay with Amaranthus retroflexus [1] (250 g/ha) came to 90%; in the assay on Alopercurus myosuroides (250 g/ha), 80%.

For `CC(C)(C)c1nc(N)nc(Nc2c(F)ncc(F)c2Cl)n1` [Example 2, 6-tert-butyl-N4-(4-chloro-2,5-difluoro-3-pyridyl)-1,3,5-triazine-2,4-diamine], the herbicidal activity stood at 100% with Amaranthus retroflexus [1] (125 g/ha) and 90% in the assay with Apera spica-venti (125 g/ha).

For the compound `Nc1nc(Nc2c(F)ncc(F)c2Cl)nc(C2(F)CC2)n1` [Example 31], the herbicidal activity in the assay with Amaranthus retroflexus [1] (250 g/ha), in the assay on Alopercurus myosuroides (250 g/ha) and in the assay with Echinocloa crus-galli was 100% throughout.

For `CC(C)(CO)c1nc(N)nc(Nc2c(F)ncc(F)c2Cl)n1` [Example 40], the herbicidal activity stood at 100% in the assay with Amaranthus retroflexus [1] (250 g/ha), 90% with Alopercurus myosuroides (250 g/ha) and 95% with Setaria faberi (250 g/ha).

For the compound `Cc1ccnc(Cl)c1Nc1nc(N)nc(C(C)(C)F)n1` [Example 53], the herbicidal activity was determined as 100% in the assay with Amaranthus retroflexus [1] (250 g/ha); 100% in the assay on Abutilon theophrasti [4]; 95% in the assay on Setaria faberi (250 g/ha); 80% in the assay with Abutilon theophrasti [2]; 98% with Amaranthus retroflexus [3].

As for `CC1(c2nc(N)nc(Nc3c(F)ncc(F)c3Cl)n2)CCCC1` [Example 14], the herbicidal activity with Amaranthus retroflexus [1] (250 g/ha) turned out to be 85%.

On to `Nc1nc(Nc2c(F)ncc(F)c2Br)nc(C(F)C2CCCC2)n1` (centres unmarked) [Example 61], for which the herbicidal activity was 100% in the assay on Amaranthus retroflexus [1] (250 g/ha), 90% in the assay with Alopercurus myosuroides (250 g/ha) and 100% with Setaria faberi (250 g/ha).

`CCC(F)(CC)c1nc(N)nc(Nc2c(F)ncc(F)c2Br)n1` [Example 52]: the herbicidal activity in the assay with Amaranthus retroflexus [1] (250 g/ha), in the assay with Echinocloa crus-galli and with Setaria faberi (250 g/ha) was 100% throughout.

With `CC(C)(Cl)c1nc(N)nc(Nc2c(F)ncc(F)c2Cl)n1` [Example 36], the herbicidal activity with Amaranthus retroflexus [1] (250 g/ha), in the assay on Alopercurus myosuroides (250 g/ha) and in the assay with Setaria faberi (250 g/ha) was 100% each time.

Take `C#CC(C)(F)c1nc(N)nc(Nc2c(F)ncc(F)c2Cl)n1` (centres unmarked) [Example 48]: the figures for the herbicidal activity with Amaranthus retroflexus [1] (250 g/ha), with Echinocloa crus-galli and in the assay on Setaria faberi (250 g/ha) were 100%, 98% and 100%, respectively.

Take `Nc1nc(Nc2c(F)nc(F)c(F)c2Cl)nc(C2(F)CCCC2)n1` [Example 69]: the herbicidal activity with Amaranthus retroflexus [1] (125 g/ha), in the assay on Alopercurus myosuroides (125 g/ha) and with Setaria faberi (125 g/ha) was 100% each time.

For `CC(F)c1nc(N)nc(Nc2c(F)ncc(F)c2Cl)n1` (racemic) [Example 8], the herbicidal activity in the assay with Amaranthus retroflexus [1] (250 g/ha) came out at 100%; in the assay with Echinocloa crus-galli it was 90%; in the assay on Setaria faberi (250 g/ha), 100%.

For the origin of these results see patent US11388901B2, “Herbicidal azines” (BASF SE, priority 2017, dated 2022).
